Columns and labels:
[1] = molecular target: T1, P450RAI-1 (Homo sapiens, UniProt O43174); test: P450RAI-1 cell-based inhibitor assay; settings: P450RAI-1 stably transfected HeLa cells, [3H]-RA metabolism, 3 hours at 37° C.; read-out: P450RAI INHIBITION DATA INTACT HELA IC50
T1 construct: expressed in transfected cells; host or cells: HeLa cells, stably transfected, hygromycin selection
T1 sequence (O43174 1-497): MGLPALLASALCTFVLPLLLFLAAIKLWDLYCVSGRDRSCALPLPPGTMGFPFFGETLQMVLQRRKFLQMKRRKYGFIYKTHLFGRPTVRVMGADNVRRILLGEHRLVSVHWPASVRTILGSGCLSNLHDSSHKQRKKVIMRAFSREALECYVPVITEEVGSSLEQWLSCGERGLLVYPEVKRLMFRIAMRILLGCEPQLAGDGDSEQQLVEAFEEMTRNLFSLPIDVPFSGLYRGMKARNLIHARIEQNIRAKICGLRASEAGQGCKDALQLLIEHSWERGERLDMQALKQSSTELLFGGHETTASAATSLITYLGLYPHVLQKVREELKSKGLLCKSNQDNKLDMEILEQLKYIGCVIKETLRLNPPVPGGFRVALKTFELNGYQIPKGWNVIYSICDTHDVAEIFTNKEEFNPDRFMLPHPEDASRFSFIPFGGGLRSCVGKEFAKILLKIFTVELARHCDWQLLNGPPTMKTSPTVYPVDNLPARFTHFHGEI
Procedure: P450RAI-1 stably transfected HeLa cells are maintained in […] tissue culture dishes in Modified Eagle's Medium (MEM) containing 10% Fetal Bovine Serum (FBS) and 100 μg/ml hygromycin. Exponentially growing cells are harvested by incubating in trypsin. Cells are then washed with 1× Phosphate Buffered Saline (PBS) and plated in a 48-well plate at 5×10^5 cells in 0.2 ml MEM medium containing 10% FBS and 0.05 μCi[^3H]-RA in the presence or absence of increasing concentrations of the test compounds. The compounds are diluted in 100% DMSO and then added in triplicate wells at either 10, 1 or 0.1 μM final concentration. As a positive control for RA metabolism inhibition, cells are also incubated with ketoconazole at 100, 10 and 1 μM. Cell are incubated for 3 hours at 37° C. […] The water soluble radioactivity is quantified using a β-scintillation counter. IC50 values represent the concentration of inhibitor required to inhibit all-trans-RA metabolism by 50 percent and are derived manually from log-transformed data.

[2] = molecular target: T2, RARγ (Homo sapiens, UniProt P13631); test: ligand binding assay, RARγ; settings: Kd line of EC50/(EFFICACY)/Kd, read-out: RAR Kd γ
T2 sequence (P13631 1-454): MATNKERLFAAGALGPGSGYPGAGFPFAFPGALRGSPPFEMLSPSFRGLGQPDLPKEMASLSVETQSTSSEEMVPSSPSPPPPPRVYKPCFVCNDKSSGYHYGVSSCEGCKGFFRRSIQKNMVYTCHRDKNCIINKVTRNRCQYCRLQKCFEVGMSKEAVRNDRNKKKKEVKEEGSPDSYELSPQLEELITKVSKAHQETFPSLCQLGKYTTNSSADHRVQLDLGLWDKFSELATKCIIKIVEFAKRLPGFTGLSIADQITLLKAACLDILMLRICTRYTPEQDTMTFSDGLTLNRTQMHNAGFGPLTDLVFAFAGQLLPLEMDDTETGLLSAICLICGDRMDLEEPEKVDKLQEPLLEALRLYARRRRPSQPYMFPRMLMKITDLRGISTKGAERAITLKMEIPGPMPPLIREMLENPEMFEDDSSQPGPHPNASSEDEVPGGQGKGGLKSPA
Excerpt: (§1) Assays described below measure the ability of a compound to bind to, and/or activate various retinoid receptor subtypes. When in these assays a compound binds to a given receptor subtype and activates the transcription of a reporter gene through that subtype, then the compound is considered an agonist of that receptor subtype. […] In the below described assays the ability of the compounds to bind to RARα, RARβ, RARγ, RXRα, RXRβ and RXRγ receptors, and the ability or inability of the compounds to activate transcription of a reporter gene through these receptor subtypes can be tested.
(§2) A holoreceptor transactivation assay and a ligand binding assay which measure the antagonist/agonist like activity of the compounds of the invention, or their ability to bind to the several retinoid receptor subtypes, respectively, are described in published PCT Application No. WO WO93/11755 (particularly on pages 30-33 and 37-41) published on Jun. 24, 1993, the specification of which is also incorporated herein by reference. A detailed experimental procedure for holoreceptor transactivations has been described by Heyman et al. Cell 68, 397-406, (1992); Allegretto et al. J. Biol. Chem. 268, 26625-26633, and Mangelsdorf et al. The Retinoids: Biology, Chemistry and Medicine, pp 319-349, Raven Press Ltd., New York, which are expressly incorporated herein by reference. The results obtained in this assay are expressed in EC50 numbers, as they are also in the chimeric receptor transactivation assay. The results of ligand binding assay are expressed in Kd numbers. (See Cheng et al. Biochemical Pharmacology Vol. 22 pp 3099-3108, expressly incorporated herein by reference.)
(§3) The results if the ligand binding assay for several preferred compounds of the invention are included in Table 1.

[3] = molecular target: T3, RARβ (Homo sapiens, UniProt P10826); test: ligand binding assay, RARβ; settings: Kd line of EC50/(EFFICACY)/Kd, read-out: RAR Kd β
T3 sequence (P10826 1-455): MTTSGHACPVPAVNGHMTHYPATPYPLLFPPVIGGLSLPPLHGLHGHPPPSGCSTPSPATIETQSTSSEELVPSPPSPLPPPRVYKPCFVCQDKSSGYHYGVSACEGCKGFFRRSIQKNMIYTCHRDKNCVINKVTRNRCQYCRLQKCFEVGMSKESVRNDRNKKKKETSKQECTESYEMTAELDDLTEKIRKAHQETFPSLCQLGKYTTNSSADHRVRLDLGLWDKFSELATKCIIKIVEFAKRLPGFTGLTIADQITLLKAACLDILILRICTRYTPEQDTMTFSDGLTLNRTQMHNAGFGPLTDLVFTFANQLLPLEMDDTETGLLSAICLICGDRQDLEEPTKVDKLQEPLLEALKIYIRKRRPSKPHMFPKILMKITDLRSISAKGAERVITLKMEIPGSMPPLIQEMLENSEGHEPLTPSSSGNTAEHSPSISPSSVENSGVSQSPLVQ
Excerpt: as §1
as §2, with “A detailed experimental procedure for holoreceptor transactivations has been described by Heyman et al. Cell 68, 397-406, (1992); Allegretto et al. J. Biol. Chem. 268, 26625-26633, and Mangelsdorf et al. The Retinoids: Biology, Chemistry and Medicine, pp 319-349, Raven Press Ltd., New York, which are expressly incorporated herein by reference.” left out

[4] = molecular target: T4, RARα (Homo sapiens, UniProt P10276); test: ligand binding assay, RARα; settings: Kd line of EC50/(EFFICACY)/Kd, read-out: RAR Kd α
T4 sequence (P10276 1-462): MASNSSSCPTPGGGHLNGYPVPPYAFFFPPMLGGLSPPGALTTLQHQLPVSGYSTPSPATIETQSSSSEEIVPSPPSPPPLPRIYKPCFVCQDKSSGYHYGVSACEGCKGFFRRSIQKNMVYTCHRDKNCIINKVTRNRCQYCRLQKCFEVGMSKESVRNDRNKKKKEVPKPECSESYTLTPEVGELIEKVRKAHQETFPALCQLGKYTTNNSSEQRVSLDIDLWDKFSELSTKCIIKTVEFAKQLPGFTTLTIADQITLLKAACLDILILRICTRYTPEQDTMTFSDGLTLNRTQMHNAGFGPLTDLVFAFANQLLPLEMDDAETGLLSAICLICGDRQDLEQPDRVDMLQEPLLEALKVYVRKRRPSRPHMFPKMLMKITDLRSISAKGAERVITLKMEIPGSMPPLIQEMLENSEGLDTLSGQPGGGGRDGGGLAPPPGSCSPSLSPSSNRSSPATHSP
Excerpt: as §1, §2, §3

Row | Structure (SMILES) | IC50 [1] [µM] | Kd [2] [µM] | Kd [3] [µM] | Kd [4] [µM]
1 | CC1(C)CN(C2CC2)Cc2ccc(C#Cc3ccc(CC(=O)O)cc3)cc21 [Compound 24, [4-(2-Cyclopropyl-4,4-dimethyl-1,2,3,4-tetrahydro-isoquinoline-6-yl-ethynyl)-phenyl]-acetic Acid] | 3 | – | – | –
2 | CC1(C)CC(C)(C)c2cc(C#Cc3ccc(CC(=O)O)cc3)ccc2O1 [Compound 28, [4-(2,2,4,4-Tetramethyl-chroman-6-yl-ethynyl)phenyl]acetic Acid] | 0.34 | > 10 | 4.27 | 21
3 | CC1(C)CCC(=O)c2ccc(C(=O)Oc3ccc(CC(=O)O)cc3)cc21 [Compound 20, 8,8-Dimethyl-5-oxo-5,6,7,8-tetrahydro-naphthalene-2-carboxylic Acid-4-(carboxymethyl)phenyl Ester] | > 10 | – | – | –
4 | COc1c(C(C)(C)C)cc(C#Cc2ccc(CC(=O)O)c(F)c2)cc1C(C)(C)C [Compound 145, [4-(3,5-Di-tert-butyl-4-methoxy-phenylethynyl)-2-fluoro-phenyl]-acetic Acid] | 0.2 | – | – | –
5 | Cc1cc(C#Cc2ccc(CC(=O)O)cc2)ccc1C1(OCC(C)(C)C)CC1 [Compound 90, {4-[4-[1-(2,2-Dimethylpropyloxy)-cyclopropyl]-3-methyl-phenylethynyl]-phenyl}-acetic Acid] | 0.95 | > 10 | > 10 | > 10
6 | O=C(O)c1ccc(C#Cc2ccc(C3(N(Cc4ccccc4)Cc4ccccc4)CC3)cc2)cc1 [Compound 114, 4-[4-(1-Dibenzylamino-cyclopropyl)-phenylethynyl]-benzoic Acid] | > 10 | > 10 | – | > 10
7 | CC1(C)CCC(n2ccnc2)c2ccc(C#Cc3ccc(C(=O)O)cc3)cc21 (centres unmarked) [Compound 139] | 0.05 | – | – | –
8 | CC1(C)CC(C)(C)c2cc(C(=O)Oc3ccc(CC(=O)O)cc3)ccc2O1 [Compound 46, 1,2,2,4,4-Tetramethyl-chroman-6-carboxylic Acid 4-(carboxymethyl)phenyl Ester] | 2.2 | – | – | –
9 | CC1(C)CCN(C2CC2)c2ccc(C#Cc3ccc(C(=O)O)cc3)cc21 [Compound 62, 4-(1-Cyclopropyl-4,4-dimethyl-1,2,3,4-tetrahydroquinolin-6-yl-ethynyl)-benzoic Acid] | > 10 | – | – | –
10 | COc1c(C(C)(C)C)cc(C#Cc2ccc(CC(=O)O)cc2)cc1C(C)(C)C [Compound 143, [4-(3,5-Di-tert-butyl-4-methoxy-phenylethynyl)-phenyl]-acetic Acid] | 0.8 | – | – | –
11 | CC1(C)CC2(CC2)Oc2c(C3CC3)cc(C#Cc3ccc(C(=O)O)c(F)c3)cc21 [Compound 54, 4-[(8-Cyclopropyl-3,4-dihydro-4,4-dimethylspiro[2H-1-benzopyran-2,1′-cyclopropane]-6-yl)ethynyl]-2-fluoro-benzoic Acid] | 0.022 | – | – | –
12 | CCN(Cc1ccc(C#Cc2ccc(C(=O)O)cc2)cc1C(C)C)C1CC1 [Compound 134, 4-{4-[(Cyclopropyl-ethyl-amino)-methyl]-3-isopropyly-phenylethynyl}-benzoic Acid] | 5 | – | – | –
13 | CCc1cc(C#Cc2ccc(CC(=O)O)cc2)cc2c1OC(C)(C)CC2(C)C [Compound 56, [4-(8-Ethyl-2,2,4,4-tetramethyl-chroman-6-yl-ethynyl)phenyl]acetic Acid] | 0.13 | – | – | –
14 | CC1(C)CC2(CC2)Oc2c(C3CC3)cc(C(=O)Oc3cccc(CC(=O)O)c3)cc21 [Compound 60, Spiro[2H-1-benzopyran-2,1′-cyclopropane]-6-carboxylic Acid, 8-cyclopropyl-3,4-dihydro-4,4-dimethyl-, 3-(carboxymethyl)phenyl Ester] | 1.6 | – | – | –
15 | CC1(C)CC2(CC2)Oc2c(C3CC3)cc(C#Cc3ccc(C(=O)O)cc3)cc21 [Compound 52, Benzoic Acid, 4-[(8-cyclopropyl-3,4-dihydro-4,4-dimethylspiro[2H-1-benzopyran-2,1′-cyclopropane]-6-yl)ethynyl]-] | 0.05 | – | – | –
16 | Cc1cc(C#Cc2ccc(CC(=O)O)cc2)ccc1Cn1ccnc1 [Compound 121, [4-(4-Imidazol-1-yl-methyl-3-methyl-phenylethynyl)-phenyl]-acetic Acid] | – | > 100 | – | > 10
17 | CCc1cc(C#Cc2ccc(CC(=O)O)cc2)ccc1C1(OC(C)C)CC1 [Compound 98, {4-[4-(1-Isopropoxycyclopropyl)-3-ethyl-phenylethynyl]-phenyl}-acetic Acid] | 0.8 | – | – | –
